According to patent publication US20050137243A1, “Antagonists of melanin concentrating hormone effects on the melanin concentrating hormone receptor” (priority 2003, published 2005):

Tests used:
[1] = Pharmacokinetic drug levels in whole brain after oral dose in DIO-mice; format: in vivo; conditions: 10 mpk PO, 0.5-24 h
[2] = Efficacy: % weight loss in diet-induced obese (DIO) mice after two weeks of dosing; format: in vivo; conditions: 100 mpk BID, PO, relative to vehicle control animals

With `O=C(Nc1ccc(Oc2ccccc2)cc1)Nc1ccc2c(cnn2CCN2CCCC2)c1` [Example 24, N-(4-phenoxyphenyl)-N′-[1-(2-pyrrolidin-1-ylethyl)-1H-indazol-5-yl]urea] the “Brain Conc. AUC” value [1] was 1428 ng·h/g and the “DIO Mice % weight loss @ 14 days” value [2] was 15%.
